pIC50: −log10 of the molar value.
target: T1, human full-length HSP90 (Homo sapiens, UniProt P08238); test: Fluorescence polarization assay (competitive displacement of fluorescein-labelled probe from HSP90); format: binding; conditions: activity range A or B
T1 construct: E. coli expressed human full-length HSP90 protein, purified >95%; made in house; host or cells: E. coli
Text: Fluorescence Polarization Assay
Fluorescence polarization {also known as fluorescence anisotropy} measures the rotation of a fluorescing species in solution, where the larger molecule the more polarized the fluorescence emission. When the fluorophore is excited with polarized light, the emitted light is also polarized. The molecular size is proportional to the polarization of the fluorescence emission.
The fluoroscein-labelled probe—
binds to HSP90 {full-length human, full-length yeast or N-terminal domain HSP90} and the anisotropy {rotation of the probe:protein complex} is measured.
Test compound is added to the assay plate, left to equilibrate and the anisotropy measured again. Any change in anisotropy is due to competitive binding of compound to HSP90, thereby releasing probe.
Chemicals are of the highest purity commercially available and all aqueous solutions are made up in AR water. • 1) Costar 96-well black assay plate #3915 • 2) Assay buffer of (a) 100 mM Tris pH7.4; (b) 20 mM KCl; (c) 6 mM MgCl2. Stored at room temperature. • 3) BSA (bovine serum albumen) 10 mg/ml (New England Biolabs # B9001S) • 4) 20 mM probe in 100% DMSO stock concentration. Stored in the dark at RT. Working concentration is 200 nM diluted in AR water and stored at 4° C., Final concentration in assay 80 nM. • 5) E. coli expressed human full-length HSP90 protein, purified >95% (see, e.g., Panaretou et al., 1998) and stored in 50 μL aliquots at −80° C.
• 1) Add 100 μl 1× buffer to wells 11A and 12A (=FP BLNK) • 2) Prepare assay mix—all reagents are kept on ice with a lid on the bucket as the probe is light-sensitive.
• 3) Aliquot 100 μl assay mix to all other wells • 4) Seal plate and leave in dark at room temp for 20 minutes to equilibrate Compound Dilution Plate—1×3 dilution series • 1) In a clear 96-well v-bottom plate—{# VWR 007/008/257} add 10 μl 100% DMSO to wells B1 to H11 • 2) To wells A1 to A11 add 17.5 μl 100% DMSO • 3) Add 2.5 μl cpd to A1. This gives 2.5 mM {50×} stock cpd—assuming cpds 20 mM. • 4) Repeat for wells A2 to A10. Control in columns 11 and 12. • 5) Transfer 5 μl from row A to row B—not column 12. Mix well. • 6) Transfer 5 μl from row B to row C. […] In column 11 {provides standard curve} only add compound B11-H11. Add 2 μl of 100 mM standard cpd to wells B12-H12 {is positive control} • 13) The Z′ factor is calculated from zero controls and positive wells. It typically gives a value of 0.7-0.9.
The compounds tested in the above assay were assigned to one of two activity ranges, namely A=<10 μM; B=>10 μM, and those assignments are reported above.

T1 sequence (P08238 whole entry): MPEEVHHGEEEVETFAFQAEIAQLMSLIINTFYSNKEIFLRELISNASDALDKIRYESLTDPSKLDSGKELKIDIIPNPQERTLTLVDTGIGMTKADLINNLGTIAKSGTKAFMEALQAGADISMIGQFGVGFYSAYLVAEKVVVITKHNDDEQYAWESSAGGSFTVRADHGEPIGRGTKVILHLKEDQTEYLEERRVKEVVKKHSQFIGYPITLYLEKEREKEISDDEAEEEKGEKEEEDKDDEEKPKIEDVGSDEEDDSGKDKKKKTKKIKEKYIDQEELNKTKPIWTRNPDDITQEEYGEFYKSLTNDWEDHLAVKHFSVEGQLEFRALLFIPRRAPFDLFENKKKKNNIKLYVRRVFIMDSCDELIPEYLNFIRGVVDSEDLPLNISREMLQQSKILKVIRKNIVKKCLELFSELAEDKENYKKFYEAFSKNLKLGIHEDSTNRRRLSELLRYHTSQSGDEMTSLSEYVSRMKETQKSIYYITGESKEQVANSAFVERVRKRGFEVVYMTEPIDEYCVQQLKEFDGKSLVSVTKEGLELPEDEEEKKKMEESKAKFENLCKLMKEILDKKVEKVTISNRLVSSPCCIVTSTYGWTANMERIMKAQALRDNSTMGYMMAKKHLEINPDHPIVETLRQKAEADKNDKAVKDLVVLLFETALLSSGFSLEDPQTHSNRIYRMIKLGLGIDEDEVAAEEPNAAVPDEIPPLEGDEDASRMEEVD

| Structure (SMILES) | pIC50 |
| --- | --- |
| CCNC(=O)c1cc2c(C(=NOC)c3ccc4c(c3)OCCN4C)nc(N)nc2s1 (mixture of isomers) [Example 1, 2-Amino-4-[methoxyimino-(4-methyl-3,4-dihydro-2H-benzo[1,4]oxazin-7-yl)-methyl]-thieno[2,3-d]pyrimidine-6-carboxylic acid ethylamide] | > 5.00 |
| CCNC(=O)c1cc2c(C(=NO)c3ccc4c(c3)OCCN4C)nc(N)nc2s1 (mixture of isomers) [Example 2, 2-Amino-4-[hydroxyimino-(4-methyl-3,4-dihydro-2H-benzo[1,4]oxazin-7-yl)-methyl]-thieno[2,3-d]pyrimidine-6-carboxylic acid ethylamide] | > 5.00 |
| CCNC(=O)c1cc2c(C(=NOCCN3CCCC3)c3ccc4c(c3)OCO4)nc(N)nc2s1 (mixture of isomers) [Example 28] | > 5.00 |
| CCNC(=O)c1cc2c(C(=NOCCN3CCCC3=O)c3ccc4c(c3)OCO4)nc(N)nc2s1 (mixture of isomers) [Example 29] | > 5.00 |
| CCNC(=O)c1cc2c(C(=NOCCN(CC)CC)c3cc4c(cc3Cl)OCO4)nc(N)nc2s1 (mixture of isomers) [Example 30] | > 5.00 |
| CCNC(=O)c1cc2c(C(=NO)c3ccc4c(c3)OCO4)nc(N)nc2s1 [Example 3, 2-Amino-4-(benzo[1,3]dioxol-5-yl-hydroxyimino-methyl)-thieno[2,3-d]pyrimidine-6-carboxylic acid ethylamide] | > 5.00 |
| CCOC(=O)c1cc2c(C(=NOC)c3ccc4c(c3)OCO4)nc(N)nc2s1 [Example 4, 2-Amino-4-(benzo[1,3]dioxol-5-yl-methoxyimino-methyl)-thieno[2,3-d]pyrimidine-6-carboxylic acid ethyl ester] | > 5.00 |
| CCNC(=O)c1cc2c(C(=NO)c3ccccn3)nc(N)nc2s1 [Example 5] | > 5.00 |
| CCNC(=O)c1cc2c(C(=NO)c3cc4c(cc3Cl)OCO4)nc(N)nc2s1 [Example 6] | > 5.00 |
| CCNC(=O)c1cc2c(C(=NO)c3cccnc3)nc(N)nc2s1 [Example 7] | < 5.00 |
| CCNC(=O)c1cc2c(C(=NO)c3cccc(OC)c3)nc(N)nc2s1 [Example 9] | > 5.00 |
| CCNC(=O)c1cc2c(C(=NO)c3ccc(Cl)cc3)nc(N)nc2s1 [Example 10] | > 5.00 |
| CCNC(=O)c1cc2c(C(=NO)c3ccccc3Cl)nc(N)nc2s1 [Example 11] | < 5.00 |
| CCNC(=O)c1cc2c(C(=NO)c3ccc(OC)cc3)nc(N)nc2s1 [Example 12] | > 5.00 |
| CCNC(=O)c1cc2c(C(=NO)c3cccc(Cl)c3)nc(N)nc2s1 [Example 13] | > 5.00 |
| CCNC(=O)c1cc2c(C(=NO)c3ccc4ccccc4c3)nc(N)nc2s1 [Example 14] | > 5.00 |
| CCNC(=O)c1cc2c(C(=NO)c3ccc(OC)c(OC)c3)nc(N)nc2s1 [Example 15] | > 5.00 |

| Structure (SMILES) | pIC50 |
| --- | --- |
| CCNC(=O)c1cc2c(C(=NO)c3ccc4c(c3)CCO4)nc(N)nc2s1 [Example 16] | > 5.00 |
| CCNC(=O)c1cc2c(C(=NO)c3ccco3)nc(N)nc2s1 [Example 17] | > 5.00 |
| CCNC(=O)c1cc2c(C(=NO)c3ccc4[nH]ccc4c3)nc(N)nc2s1 [Example 18] | > 5.00 |
| CCNC(=O)c1cc2c(C(=NO)c3ccoc3)nc(N)nc2s1 [Example 19] | > 5.00 |
| Nc1nc(C(=NO)c2ccc3c(c2)OCO3)c2cc(C(=O)NC3CC3)sc2n1 [Example 20, 2-Amino-4-(benzo[1,3]dioxol-5-yl-hydroxyimino-methyl)-thieno[2,3-d]pyrimidine-6-carboxylic acid cyclopropylamide] | > 5.00 |
| CC(C)(C)NC(=O)c1cc2c(C(=NO)c3ccc4c(c3)OCO4)nc(N)nc2s1 [Example 21] | > 5.00 |
| COCCNC(=O)c1cc2c(C(=NO)c3ccc4c(c3)OCO4)nc(N)nc2s1 [Example 22] | > 5.00 |
| CN(C)CCCNC(=O)c1cc2c(C(=NO)c3ccc4c(c3)OCO4)nc(N)nc2s1 [Example 23] | > 5.00 |
| CN(C)CCNC(=O)c1cc2c(C(=NO)c3ccc4c(c3)OCO4)nc(N)nc2s1 [Example 24] | > 5.00 |
| Nc1nc(C(=NO)c2ccc3c(c2)OCO3)c2cc(C(=O)NCC(F)(F)F)sc2n1 [Example 25] | > 5.00 |
| CCNC(=O)c1cc2c(C(=NOCCN(CC)CC)c3ccc4c(c3)OCO4)nc(N)nc2s1 [Example 26, 2-Amino-4-(benzo[1,3]dioxol-5-yl-(2-diethylamino-ethoxyimino)-methyl]-thieno[2,3-d]pyrimidine-6-carboxylic acid ethylamide] | > 5.00 |
| CCNC(=O)c1cc2c(C(=NOCCN(CC)CC)c3cccc(OC)c3)nc(N)nc2s1 [Example 31] | > 5.00 |
| CCNC(=O)c1cc2c(C(=NOCCN(CC)CC)c3ccc4c(c3)OCCO4)nc(N)nc2s1 [Example 32] | > 5.00 |
| CCNC(=O)c1cc2c(C(=NOCCN(CC)CC)c3ccc(OC)cc3)nc(N)nc2s1 [Example 33] | > 5.00 |
| CCNC(=O)c1cc2c(C(=NOCC(=O)O)c3ccc4c(c3)OCO4)nc(N)nc2s1 [Example 34] | > 5.00 |
| CCNC(=O)c1cc2c(C(=NOCC(=O)N3CCCCC3)c3ccc4c(c3)OCO4)nc(N)nc2s1 [Example 35] | > 5.00 |

More lines, now with the values ahead:

| pIC50 | Structure (SMILES) |
| --- | --- |
| > 5.00 | CC(C)NC(=O)c1cc2c(C(=NOCCN3CCCC3=O)c3ccc4c(c3)OCO4)nc(N)nc2s1 (mixture of isomers) [Example 46] |
| > 5.00 | CC(C)(C)NC(=O)c1cc2c(C(=NOCCN3CCCC3)c3ccc4c(c3)OCO4)nc(N)nc2s1 (mixture of isomers) [Example 54] |
| > 5.00 | COCCNC(=O)c1cc2c(C(=NOCCN3CCCC3=O)c3ccc4c(c3)OCO4)nc(N)nc2s1 (mixture of isomers) [Example 57] |
| < 5.00 | CCNC(=O)c1cc2c(C(=NOCCN(CC)CC)c3ccco3)nc(N)nc2s1 [Example 37] |
| < 5.00 | CCNC(=O)c1cc2c(C(=NOCCN(CC)CC)c3cccs3)nc(N)nc2s1 [Example 38] |
| < 5.00 | CCNC(=O)c1cc2c(C(=NOCCN3CCCC3)c3cccs3)nc(N)nc2s1 [Example 39] |
| > 5.00 | CCNC(=O)c1cc2c(C(=NOCCN3CCCC3=O)c3cccs3)nc(N)nc2s1 [Example 40] |
| > 5.00 | CCNC(=O)c1cc2c(C(=NOCCN(CC)CC)c3ccco3)nc(N)nc2s1 [Example 41] |
| < 5.00 | CCNC(=O)c1cc2c(C(=NOCCN(CC)CC)c3ccncc3)nc(N)nc2s1 [Example 42] |
| > 5.00 | CCNC(=O)c1cc2c(C(=NOCCN3CCCC3)c3ccco3)nc(N)nc2s1 [Example 43] |
| > 5.00 | CCN(CC)CCON=C(c1ccc2c(c1)OCO2)c1nc(N)nc2sc(C(=O)NC(C)C)cc12 [Example 44] |
| > 5.00 | CC(C)NC(=O)c1cc2c(C(=NOCCN3CCCC3)c3ccc4c(c3)OCO4)nc(N)nc2s1 [Example 45] |
| > 5.00 | CCNC(=O)c1cc2c(C(=NOCCN3CCCC3=O)c3ccco3)nc(N)nc2s1 [Example 47] |
| < 5.00 | CCNC(=O)c1cc2c(C(=NOCCN3CCCC3)c3ccncc3)nc(N)nc2s1 [Example 48] |
| > 5.00 | CCNC(=O)c1cc2c(C(=NO)c3cccs3)nc(N)nc2s1 [Example 50] |
| < 5.00 | CCNC(=O)c1cc2c(C(=NO)c3ccncc3)nc(N)nc2s1 [Example 51] |
| > 5.00 | CCN(CC)CCON=C(c1ccc2c(c1)OCO2)c1nc(N)nc2sc(C(=O)NCCOC)cc12 [Example 52] |
| > 5.00 | COCCNC(=O)c1cc2c(C(=NOCCN3CCCC3)c3ccc4c(c3)OCO4)nc(N)nc2s1 [Example 53] |
| > 5.00 | CCN(CC)CCON=C(c1ccc2c(c1)OCO2)c1nc(N)nc2sc(C(=O)NC(C)(C)C)cc12 [Example 55] |
| > 5.00 | CC(C)(C)NC(=O)c1cc2c(C(=NOCCN3CCCC3=O)c3ccc4c(c3)OCO4)nc(N)nc2s1 [Example 58] |
| > 5.00 | CCN(CC)CCON=C(c1ccc2c(c1)OCO2)c1nc(N)nc2sc(C(=O)NC3CC3)cc12 [Example 59] |
| > 5.00 | Nc1nc(C(=NOCCN2CCCC2)c2ccc3c(c2)OCO3)c2cc(C(=O)NC3CC3)sc2n1 [Example 60] |
| > 5.00 | Nc1nc(C(=NOCCN2CCCC2=O)c2ccc3c(c2)OCO3)c2cc(C(=O)NC3CC3)sc2n1 [Example 61] |
| > 5.00 | CCNC(=O)c1cc2c(C(=NOCCN(CC)CC)c3ccc(OC)c(OC)c3)nc(N)nc2s1 [Example 62] |
